Laboratory results reported in patent publication US9888679B2, “Protection of progenitor cells and regulation of their differentiation” (Proteobioactives Pty Ltd, priority 2007, dated 2018).

What was measured:
Smad 4 = test: RT-PCR gene expression, 2 day monolayer ATDC5 cultures; assay type: cell-based, murine; conditions: ATDC5 cells; concentrations shown to stimulate PG synthesis; FIG. 26
Excerpt: (§1) FIG. 26. RT-PCR detection of gene expression of Runx2 and the transduction proteins, Smad 2 and Smad 4 and the housekeeping gene NADPH expressed by Murine ATDC5 progenitor cells cultured in the presence and absence of rhNC4 (Batch PBA-1209P) and PPS for 2 days in monolayer cultures.
(§2) Total RNA was isolated from Progenitor cells according to the manufacturer's instructions for the Aurum total RNA mini kit (Bio-Rad, USA). The RNA was reverse transcribed with RevertAid™ H Minus First Stand cDNA Synthesis Kit (Fermentas, USA). PCR products were transferred to an agarose gel, and visualized by ethidium bromide staining, and integrated densities calculated using Scion image analysis software, normalized to the house-keeping gene Glyceraldehydes-3-phosphate dehydrogenase (GAPDH) to permit semi-quantitative comparisons in mRNA levels. (L. Marchuk, P. Sciore, C. Reno, C. B. Frank, D. A. Hart. Postmortem stability of total RNA isolated from rabbit ligament, tendon and cartilage, Biochim Biophys Acta. 1379 (1998) 171-177. R. Boykiw, P. Sciore, C. Reno, L. Marchuk, C. B. Frank, D. A. Hart. Altered levels of extracellular matrix molecule mRNA in healing rabbit ligaments, Matrix Biol. 17 (1998) 371-378.)

Smad 2 = test: as above; assay type: cell-based, murine; conditions: ATDC5 cells; concentrations shown to stimulate PG synthesis; FIG. 26
Excerpt: as §1, §2

[1] = system: murine Progenitor Cells (C3H10T1/2 cells); test: DNA synthesis (3H-Thymidine) in 2 day monolayer cultures; assay type: cell-based; conditions: murine progenitor cell line, FIG. 10
Excerpt: FIG. 10. A bar graph of the concentration dependent effects of Pentosan Polysulfate (PPS) on DNA synthesis by murine Progenitor Cells (C3H10T1/2 cells) grown in monolayer cultures for 2 days as determined by the incorporation of ^3H-Thymidine into macromolecular DNA.

[2] = system: murine ATDC5 progenitor cells; test: Viability after freeze-thawing cycle, MTT assay; assay type: cell-based
Method: FIG. 2. Bar graph showing the viability of different numbers of murine ATDC5 progenitor cells suspended in cryogenic media containing 7.5% DMSO and various concentrations of Pentosan Polysulfate (PPS) after being subjected to freeze-thawing cycle. Cell viability was determined using the mitochondrial dehydrogenase MTT assay.
Murine Progenitor cells (cell lines C3H10T1/2 or ATDC5) purchased from RIKEN Cell Bank (Tsukuba, Japan) or human immunoselected Stro-1+ progenitor cells (Mesoblast Ltd, Melbourne, Australia) were seeded at a various cell densities over the range of 1.68×10^5-1.0×10^6 cells into 2 mL screw-capped centrifuge tubes containing in DMEM+10% FBS. In separate tubes a stock solution containing 2× the required concentrations of PPS dissolved in DMEM+20% FBS and 15% DMSO were prepared. These stock solutions were added to the cell cultures such that the final concentration of PPS was half that of the stock concentration and of FBS was 10% and DMSO was […]. […] All concentrations of PPS used were examined in triplicated. Cells and the cryopreservation solutions containing the PPS were mixed gently for 5 mins and stored in liquid nitrogen. After 3 days, the tubes were removed from liquid nitrogen and thawed in 37° C. water bath and allowed to stand at ambient temperature for about 15 min. The cells were centrifuged down at 200 g for 5 min and the supernatant discarded. The cells were washed with 900 ul of DMEM without phenol red, and then centrifuged down at 200 g for 5 min. The cells were resuspended in 500 ul of 1 mg/ml MTT solution in DMEM and incubated in 37° C. for 3 hours then centrifuged at 6000 g for 5 min. 300 ul of DMSO was added to each tube to dissolved the dye crystals. 90 ul×3 from each tube were transferred to a 96-well plate and the absorbance at 540 nm determined.
Cell viability was determined using the MTT assay.

Murine ATDC5 cell line = test: Proteoglycan biosynthesis (35S-GAG) in pellet cultures; assay type: cell-based; conditions: 2 micrograms/mL; 6 day pellet culture; FIG. 12
Excerpt: FIG. 12. A bar graph of the concentration dependent effects of Pentosan Polysulfate (PPS), on the biosynthesis of Proteoglycans (PGs) as determined by the incorporation of radioactively labelled sulfate into the sulfated glycosaminoglycans (^35S-GAG) of PGs in 6 day pellet cultures of murine progenitor cells (ADTC-5). *=p<0.05 relative to control.
FIG. 22. A bar graph of the concentration dependent effects of rhNC4 (batch PBA-1202P) expressed by K. lactis, in the absence (maintenance media, MM) and presence of insulin (10 micrograms/mL) (differentiation media, DM), on the biosynthesis of Proteoglycans PGs) in pellet cultures of ATDC5 cells. Data is shown as the % change relative to controls taken to be 100%.
Murine Progenitor cells (cell lines C3H10T1/2 or ATDC5) purchased from RIKEN Cell Bank (Tsukuba, Japan) or human immunoselected Stro-1+ Progenitor cells (Mesoblast Ltd, Melbourne, Australia) were seeded in 2 ml screw-capped sterile centrifuge tubes and the total volume made-up to 1 ml with DMEM-High glucose medium containing 10% FBS. Progenitor cells were then centrifuged at 500 g for 10 min in a swing-out rotor at room temperature. The screw caps were loosened and the tubes placed in an incubator at 37° C., in a 5% CO2/95% air moist atmosphere. The pellets generally formed within 24 hours. Medium was changed daily in the first two days, then once every 2-3 days thereafter. On day 5 the medium was removed and to each tube was added 1 ml with DMEM-High glucose medium containing 10% FBS, 5.0 μCi/ml ^35S-H2SO4 and various concentrations of PPS (0, 0.1, 0.5, 1.0, 2.5, 5.0, 10.0, 20.0, μg/ml) (FIG. 12-15) or rhNC4 (0, 0.1, 0.5, 1.0, 2.0 μg/ml) (FIG. 22). Triplicate cultures were used for all concentration of drugs. The screw caps were loosened and the tubes placed in an incubator at 37° C., in a 5% CO2/95% moist air atmosphere […]. On day 6, 200 μl of stock papain solution [2.5 mg/ml papain, 7.9 mg/ml L-Cystein in papain buffer (0.1 M NaAC, 5 mM EDTA, pH6.0)] was added to each tube. The tubes were tightly capped and incubated at 65° C. for 2 hours. After papain digestion, 4 replicates of 200 μl of papain digested solution were separately transferred to a 96-well micro-titre plate (200 μl/well). The remaining solution was used for the DNA fluorometric assays which were undertaken in triplicate as described above. Biosynthesis of ^35S-GAGs was determined as described for the monolayer cultures and the results expressed as ^35-S-GAGs/μg DNA.
Data is shown as the % of controls taken to be 100%.

Type II collagen = test: Gene expression in 6-day pellet culture (RT-PCR); assay type: cell-based, murine; conditions: ATDC5 cells; 6 days in pellet culture; FIG. 13
Method: FIG. 13. Gene Expression by ATDC5 cells of Type II collagen and Sox-9 in 6-day pellet culture incubated with various concentrations of PPS in Maintenance Medium (MM).
as §2

For pentosan polysulfate [PPS], the “expression of Smad 4” value (Smad 4) was “up regulation”, the “expression of Smad 2” value (Smad 2) was “up regulation” and the “cell division (3H-Thymidine incorporation into DNA)” value [1] was “Marked stimulation of cell division”. For the same substance, the “cell viability after freeze-thawing (MTT)” value ([2]; 100 μg/ml PPS, 0.25, 0.5 and 1.0 million cells) was “viability was enhanced”, the “cell viability after freeze-thawing (MTT)” value ([2]; 500 μg/ml PPS, 0.25 million and 0.5 million cells) was “enhancement is seen” and the “cell viability after freeze-thawing (MTT)” value ([2]; 500 μg/ml PPS, 1 million cells) was “did not appear to enhance viability but was not detrimental to viability”. For the same substance, the “cell viability after freeze-thawing (MTT)” value ([2]; 7.5% DMSO, all PPS concentrations, FIG. 2) was “enhanced by the presence of PPS at all concentrations”, the “increase of proteoglycan (PG) synthesis relative to control culture” value (Murine ATDC5 cell line) was 25% and the “type II collagen expression” value (Type II collagen) was “up-regulated in a concentration dependent manner”.
